# Laboratory results reported in ChEMBL document CHEMBL1629501, “Regiospecific synthesis and biological evaluation of spirooxindolopyrrolizidines via [3+2] cycloaddition of azomethine ylide” (2010).
# Calls of active or inactive are those of the source. No cut-off for these calls is given here.
# Assays:
# Candida albicans = assay: Antifungal activity against Candida albicans ATCC 3122 by twofold serial dilution method; format: functional
# Cryptococcus neoformans = assay: Antifungal activity against Cryptococcus neoformans ATCC 3312 after 72 to 96 hrs by twofold serial dilution method; format: functional
# Rhizopus = assay: Antifungal activity against Rhizopus sp. ATCC 2915 after 72 to 96 hrs by twofold serial dilution method; format: functional
# Aspergillus niger = assay: Antifungal activity against Aspergillus niger ATCC 598 after 72 to 96 hrs by twofold serial dilution method; format: functional
# Aspergillus flavus = assay: Antifungal activity against Aspergillus flavus ATCC 485 after 72 to 96 hrs by twofold serial dilution method; format: functional
# Staphylococcus aureus = assay: Antibacterial activity against Staphylococcus aureus ATCC 25825 after 24 hrs by twofold serial dilution method; format: functional; details: ATCC 25825, 24 h
# Bacillus subtilis = assay: Antibacterial activity against Bacillus subtilis ATCC 451 after 24 hrs by twofold serial dilution method; format: functional; details: ATCC 451, 24 h
# Escherichia coli = assay: Antibacterial activity against Escherichia coli ATCC 25835 after 24 hrs by twofold serial dilution method; format: functional; details: ATCC 25835, 24 h
# Klebsiella pneumoniae [1] = assay: Antibacterial activity against Klebsiella pneumoniae ATCC 15490 after 24 hrs by twofold serial dilution method; format: functional; details: ATCC 15490, 24 h
# Salmonella typhi = assay: Antibacterial activity against Salmonella typhi ATCC 24915 after 24 hrs by twofold serial dilution method; format: functional, Salmonella enterica subsp. enterica serovar Typhi; details: Salmonella enterica, ATCC 24915, 24 h
# Klebsiella pneumoniae [2] = assay: Antibacterial activity against Klebsiella pneumoniae ATCC 15490 at 200 ug/ml after 24 hrs by twofold serial dilution method; format: functional, organism-based
Structure (SMILES),MIC (Candida albicans) [µg/mL],MIC (Cryptococcus neoformans) [µg/mL],MIC (Rhizopus) [µg/mL],MIC (Aspergillus niger) [µg/mL],MIC (Aspergillus flavus) [µg/mL],MIC (Staphylococcus aureus) [µg/mL],MIC (Bacillus subtilis) [µg/mL],MIC (Escherichia coli) [µg/mL],MIC (Klebsiella pneumoniae [1]) [µg/mL],MIC (Salmonella typhi) [µg/mL],Activity (Klebsiella pneumoniae [2])
C[C@@H]1[C@H](O)[C@@H](C)/C=C/C=C/C=C/C=C/C=C/C=C/C=C/[C@H](O[C@@H]2O[C@H](C)[C@@H](O)[C@H](N)[C@@H]2O)C[C@@H]2O[C@](O)(C[C@@H](O)C[C@@H](O)[C@H](O)CC[C@@H](O)C[C@@H](O)CC(=O)O[C@H]1C)C[C@H](O)[C@H]2C(=O)O [AMPHOTERICIN B],25,25,25,50,50,–,–,–,–,–,–
CN[C@@H]1[C@H](O[C@H]2[C@H](O[C@H]3[C@H](O)[C@@H](O)[C@H](N=C(N)N)[C@@H](O)[C@@H]3N=C(N)N)O[C@@H](C)[C@]2(O)C=O)O[C@@H](CO)[C@H](O)[C@H]1O [STREPTOMYCIN],–,–,–,–,–,50,12.5,12.5,25,50,–
O=C(c1cccs1)[C@H]1[C@H](c2ccccc2)C2CCCN2[C@]12C(=O)Nc1ccccc12 (stereo partly drawn),100,50,200,–,200,50,100,100,200,100,–
Cc1ccc([C@@H]2C3CCCN3[C@]3(C(=O)Nc4ccccc43)[C@H]2C(=O)c2cccs2)cc1 (stereo partly drawn),100,100,100,–,25,50,25,50,100,6.25,–
O=C(c1cccs1)[C@H]1[C@H](c2ccc([N+](=O)[O-])cc2)C2CCCN2[C@]12C(=O)Nc1ccccc12 (stereo partly drawn),200,100,50,100,200,100,50,200,50,100,–
CN(C)c1ccc([C@@H]2C3CCCN3[C@]3(C(=O)Nc4ccccc43)[C@H]2C(=O)c2cccs2)cc1 (stereo partly drawn),100,50,50,100,200,200,50,100,50,100,–
O=C(c1cccs1)[C@H]1[C@H](c2ccc(F)cc2)C2CCCN2[C@]12C(=O)Nc1ccccc12 (stereo partly drawn),6.25,25,6.25,200,100,6.25,25,50,–,6.25,inactive
O=C(c1cccs1)[C@H]1[C@H](c2cccc(Br)c2)C2CCCN2[C@]12C(=O)Nc1ccccc12 (stereo partly drawn),50,25,12.5,100,200,25,25,50,100,100,–
COc1ccc([C@@H]2C3CCCN3[C@]3(C(=O)Nc4ccccc43)[C@H]2C(=O)c2cccs2)cc1 (stereo partly drawn),100,50,50,100,25,6.25,50,100,25,100,–
O=C(c1cccs1)[C@H]1[C@H](c2ccc(Cl)cc2)C2CCCN2[C@]12C(=O)Nc1ccccc12 (stereo partly drawn),25,12.5,6.25,25,100,6.25,12.5,25,–,6.25,inactive
